Assay results published in US9963462B2 (priority 2015, dated 2018).

Assays:
[1] = tested on: BH4 levels in SK-N-BE (2) cells; test: SKN-N-BE (2) cellular assay, BH4 levels by LC-MS; assay type: cell-based; conditions: Homo sapiens, SKNBE2, read-out: SK-N-BE(2) IC50, SK-N-BE (2) cells, BH4 levels by LC-MS
[2] = biological target: SNAP-hSPR (sepiapterin reductase, SPR) (Homo sapiens, UniProt P35270); test: biochemical; assay type: binding; conditions: terbium labelled SNAP-hSPR / SSZ labelled SNAP-EGFP; read-out: hTR-FRET IC50
SNAP-hSPR (sepiapterin reductase, SPR), sequence (P35270 whole entry): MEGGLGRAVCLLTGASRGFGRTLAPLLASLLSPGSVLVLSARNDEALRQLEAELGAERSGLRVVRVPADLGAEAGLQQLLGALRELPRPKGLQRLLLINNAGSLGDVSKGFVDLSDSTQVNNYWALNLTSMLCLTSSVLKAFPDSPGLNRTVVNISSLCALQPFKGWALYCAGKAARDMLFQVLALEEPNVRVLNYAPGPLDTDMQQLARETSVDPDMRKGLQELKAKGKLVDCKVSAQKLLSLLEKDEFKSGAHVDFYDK
Description: TR-FRET Assay: A TR-FRET (homogeneous, time-resolved, fluorescence resonance energy transfer) assay was used to assess activity of compounds following standard assay conditions. […] Compounds were screened at different concentrations and IC50 values calculated.
Terbium labelled SNAP-hSPR and SSZ (sulfasalazine) labelled SNAP-EGFP were used as the protein pair in this assay. Compounds were screened at different concentrations, and 1050 and Kd values calculated.

Row | SMILES | IC50 [1] [nM] | IC50 [2] [nM]
1 | Cc1cc(-n2ncc(C(=O)N3CCC(C(F)(F)F)CC3)c2C)[nH]c(=O)c1 [Q-0439, 4-methyl-6-{5-methyl-4-[4-(trifluoromethyl)piperidine-1-carbonyl]-1H-pyrazol-1-yl}-1,2-dihydropyridin-2-one] | 96 | 1
2 | Cc1cc(=O)[nH]c(-n2ncc(C(=O)NC3CCCC3)c2Cc2ccccc2)n1 [Q-0370] | 22000 | 100
3 | Cc1c(C(=O)N2CC3(CCCN3C(=O)OC(C)(C)C)C2)cnn1-c1nn2cccc2c(=O)[nH]1 [Q-0785] | 200 | 1
4 | Cc1c(C(=O)N2CC3CC(C2)C3(F)F)cnn1-c1nn2cccc2c(=O)[nH]1 [Q-0799] | 300 | 1
5 | Cc1c(C(=O)N2CCN(C)c3ccccc32)cnn1-c1nc2c(c(=O)[nH]1)CCC2 [Q-0731] | 53 | 2
6 | Cc1c(C(=O)N2CC(c3ccccc3)C2)cnn1-c1nc2c(c(=O)[nH]1)CCC2 [Q-0479] | 100 | 6
7 | O=C(c1cnn(-c2nc3c(c(=O)[nH]2)CCC3)c1)N1CCC(C2CC2)CC1 [Q-0706] | 30 | 2
8 | Cc1c(C(=O)N2Cc3cc(C(F)(F)F)cnc3C2)cnn1-c1nn2cccc2c(=O)[nH]1 [Q-1004] | 3100 | 
9 | Cc1c(C(=O)N2CC3CCC2c2ccccc23)cnn1-c1nn2cccc2c(=O)[nH]1 (centres unmarked) [Q-0965] | 100 | 
10 | Cc1c(C(=O)N2CCCC(C)(C#N)C2)cnn1-c1nn2cccc2c(=O)[nH]1 (centres unmarked) [Q-0923] | 1300 | 
11 | Cc1c(C(=O)N2CC3CCCC(C3)C2)cnn1-c1nn2cccc2c(=O)[nH]1 [Q-0934] | 300 | 
12 | Cc1c(C(=O)N2CCn3cc(C(F)(F)F)nc3C2)cnn1-c1nn2cccc2c(=O)[nH]1 [Q-0871] | 4000 | 
13 | Cc1c(C(=O)N2CC(OCC(F)(F)F)C2)cnn1-c1nn2cccc2c(=O)[nH]1 [Q-0987] | 1100 | 
14 | Cc1c(C(=O)N2CC3CCCC(C2)N3CCC(F)(F)F)cnn1-c1nn2cccc2c(=O)[nH]1 [Q-1036] | 70 | 
15 | Cc1c(C(=O)N2CCC3C(CCN3C(=O)OC(C)(C)C)C2)cnn1-c1nn2cccc2c(=O)[nH]1 (centres unmarked) [Q-0865] | 100 | 
16 | Cc1c(C(=O)N2CCC(CC(F)(F)F)C2)cnn1-c1nn2cccc2c(=O)[nH]1 (centres unmarked) [Q-0966] | 1300 | 
17 | Cc1c(C(=O)N2CCC(N3CCC[C@@H]3C(F)(F)F)CC2)cnn1-c1nn2cccc2c(=O)[nH]1 [Q-1019] | 400 | 
18 | Cc1c(C(=O)N2CCC3(CC2)CC3c2nnc(-c3cccc(F)c3)o2)cnn1-c1nn2cccc2c(=O)[nH]1 (centres unmarked) [Q-0905] | 600 | 
19 | Cc1c(C(=O)N2CC3(CCCC3)C2)cnn1-c1nc2c(c(=O)[nH]1)CCC2 [Q-0931] | 200 | 
20 | Cc1c(C(=O)N2CCC[C@H](OCC(F)(F)F)C2)cnn1-c1nn2cccc2c(=O)[nH]1 [Q-1044] | 1000 | 
21 | CCN(C)C1CCN(C(=O)c2cnn(-c3nn4cccc4c(=O)[nH]3)c2C)CC1 [Q-0925] | 500 | 
22 | Cc1c(C(=O)N2CCC(n3cncn3)CC2)cnn1-c1nn2cccc2c(=O)[nH]1 [Q-0919] | 1700 | 
23 | COCC1(C#N)CCN(C(=O)c2cnn(-c3nn4cccc4c(=O)[nH]3)c2C)CC1 [Q-0957] | 1000 | 
24 | CCCC(C#N)C1CCN(C(=O)c2cnn(-c3nn4cccc4c(=O)[nH]3)c2C)CC1 (centres unmarked) [Q-0858] | 44 | 
25 | Cc1c(C(=O)N2CCC(F)(c3ccccn3)CC2)cnn1-c1nn2cccc2c(=O)[nH]1 [Q-0962] | 300 | 
26 | Cc1c(C(=O)N2C3CCC2CN(c2ccc(F)cc2)C3)cnn1-c1nn2cccc2c(=O)[nH]1 [Q-0880] | 87 | 

Row | SMILES | IC50 [1] [nM] | IC50 [2] [nM]
27 | Cc1c(C(=O)N2CCC(N3CCC(F)(F)C3)C2)cnn1-c1nn2cccc2c(=O)[nH]1 (centres unmarked) [Q-0994] | 3000 | 
28 | Cc1c(C(=O)N2CCN(CCS(C)(=O)=O)CC2)cnn1-c1nn2cccc2c(=O)[nH]1 [Q-0901] | 10000 | 
29 | Cc1c(C(=O)N2CC(CN(C)C(=O)OC(C)(C)C)C2)cnn1-c1nn2cccc2c(=O)[nH]1 [Q-0861] | 400 | 
30 | Cc1c(C(=O)N2CCC(n3ccnc3)CC2)cnn1-c1nn2cccc2c(=O)[nH]1 [Q-0942] | 9100 | 
31 | Cc1c(C(=O)N2CCC(C(F)(F)F)C2(C)C)cnn1-c1nn2cccc2c(=O)[nH]1 (centres unmarked) [Q-0959] | 1000 | 
32 | Cc1c(C(=O)N2CCC(O)(Cc3ccc(F)cc3)C2)cnn1-c1nn2cccc2c(=O)[nH]1 (centres unmarked) [Q-1028] | 1100 | 
33 | CCC(C#N)C1CCN(C(=O)c2nnn(-c3nn4cccc4c(=O)[nH]3)c2C)CC1 (centres unmarked) [Q-1017] | 300 | 
34 | Cc1c(C(=O)N2CC(N3CCC[C@H](F)C3)C2)cnn1-c1nn2cccc2c(=O)[nH]1 [Q-1025] | 1200 | 
35 | Cc1c(C(=O)N2CCCC3C2CCCN3C(=O)OC(C)(C)C)cnn1-c1nn2cccc2c(=O)[nH]1 (centres unmarked) [Q-0912] | 900 | 
36 | Cc1c(C(=O)N2CCn3ccnc3C2)cnn1-c1nn2cccc2c(=O)[nH]1 [Q-0866] | 6700 | 
37 | Cc1c(C(=O)N2CC3CCN(C(=O)OC(C)(C)C)C3C2)cnn1-c1nn2cccc2c(=O)[nH]1 (centres unmarked) [Q-0878] | 800 | 
38 | Cc1c(C(=O)N2CCN(C(C#N)c3cccs3)CC2)cnn1-c1nn2cccc2c(=O)[nH]1 (centres unmarked) [Q-0964] | 8900 | 
39 | Cc1c(C(=O)N2C3CCC2CC(N(C)C(=O)c2ccccc2)C3)cnn1-c1nn2cccc2c(=O)[nH]1 (centres unmarked) [Q-0970] | 400 | 
40 | Cc1c(C(=O)N2CCC(C3(C#N)CCCC3)CC2)cnn1-c1nn2cccc2c(=O)[nH]1 [Q-0988] | 69 | 
41 | Cc1c(C(=O)N2CCC(F)(c3ccc(Cl)cc3)CC2)cnn1-c1nn2cccc2c(=O)[nH]1 [Q-0990] | 200 | 
42 | Cc1c(C(=O)N2C3CCC2CN(c2cccc(F)c2)C3)cnn1-c1nn2cccc2c(=O)[nH]1 [Q-0876] | 88 | 
43 | Cc1c(C(=O)N2CC3CC2C[C@H]3C#N)cnn1-c1nn2cccc2c(=O)[nH]1 (some centres unmarked) [Q-1002] | 3400 | 
44 | Cc1c(C(=O)N2CCC(N3CCOCC3)C2)cnn1-c1nn2cccc2c(=O)[nH]1 (centres unmarked) [Q-0950] | 6200 | 
45 | Cc1c(C(=O)N2CCC3CCC(=O)N(C4CC4)C3C2)cnn1-c1nn2cccc2c(=O)[nH]1 (centres unmarked) [Q-0954] | 9000 | 
46 | O=C(c1cnn(-c2nn3c(F)ccc3c(=O)[nH]2)c1C1CC1)N1CCC1 [Q-0863] | 600 | 
47 | COC1(C2CC2)CCN(C(=O)c2cnn(-c3nn4cccc4c(=O)[nH]3)c2C)CC1 [Q-0938] | 100 | 
48 | Cc1c(C(=O)N2C3CCC2CC(F)(c2ccc(Cl)cc2)C3)cnn1-c1nn2cccc2c(=O)[nH]1 (centres unmarked) [Q-1037] | 71 | 
49 | Cc1c(C(=O)N2CCC(C3(C#N)CCC3)CC2)cnn1-c1nn2cccc2c(=O)[nH]1 [Q-0999] | 200 | 
50 | Cc1c(C(=O)N2CCC3(CC2)CC3c2noc(-c3cccnc3)n2)cnn1-c1nn2cccc2c(=O)[nH]1 (centres unmarked) [Q-0932] | 700 | 
51 | Cc1c(C(=O)N2CCC3(CCOC3)C2)cnn1-c1nn2cccc2c(=O)[nH]1 (centres unmarked) [Q-0922] | 1000 | 
52 | Cc1c(C(=O)N2CCC(C)C(F)C2)cnn1-c1nn2cccc2c(=O)[nH]1 (centres unmarked) [Q-1039] | 300 | 

Row | SMILES | IC50 [1] [nM] | IC50 [2] [nM]
53 | Cc1c(C(=O)N2CCC3(CC2)OCc2ccccc23)cnn1-c1nn2cccc2c(=O)[nH]1 [Q-0909] | 100 | 
54 | Cc1c(C(=O)N2CCC23CC(F)(F)C3)cnn1-c1nn2cccc2c(=O)[nH]1 [Q-0900] | 2300 | 
55 | Cc1c(C(=O)N2CCC(N3CCC[C@@H](F)C3)C2)cnn1-c1nn2cccc2c(=O)[nH]1 (some centres unmarked) [Q-1016] | 2400 | 
56 | Cc1c(C(=O)N2C3CCC2CN(c2ccccc2)C3)cnn1-c1nn2cccc2c(=O)[nH]1 [Q-0875] | 76 | 
57 | COC1CCN(C(=O)c2cnn(-c3nn4cccc4c(=O)[nH]3)c2C)CC1 [Q-0976] | 1100 | 
58 | Cc1c(C(=O)N2CC3CCCC(C2)N3C(=O)OC(C)(C)C)cnn1-c1nc2c(c(=O)[nH]1)CCC2 [Q-1045] | 100 | 
59 | Cc1c(C(=O)N2CC(N3CC[C@H](F)C3)C2)cnn1-c1nn2cccc2c(=O)[nH]1 [Q-1031] | 2300 | 
60 | Cc1c(C(=O)N2C3CCC2CN(c2ccc(Cl)cc2)C3)cnn1-c1nn2cccc2c(=O)[nH]1 [Q-0894] | 100 | 
61 | Cc1ccc(OC2CC3CCC(C2)N3C(=O)c2cnn(-c3nn4cccc4c(=O)[nH]3)c2C)cc1 (centres unmarked) [Q-0974] | 100 | 
62 | Cc1c(C(=O)N2CC(OCC(F)F)C2)cnn1-c1nn2cccc2c(=O)[nH]1 [Q-0979] | 1400 | 
63 | Cc1c(C(=O)N2CC(N3CCC(F)CC3)C2)cnn1-c1nn2cccc2c(=O)[nH]1 [Q-1021] | 1000 | 
64 | Cc1c(C(=O)N2CC3CC(C)N(C(=O)C(C)(C)C)C3C2)cnn1-c1nn2cccc2c(=O)[nH]1 (centres unmarked) [Q-0946] | 1100 | 
65 | Cc1c(C(=O)N2CCN(C(=O)OC(C)(C)C)CC2C)cnn1-c1nn2cccc2c(=O)[nH]1 (centres unmarked) [Q-0885] | 400 | 
66 | Cc1c(C(=O)N2CC3CC(C#N)CC3C2)cnn1-c1nn2cccc2c(=O)[nH]1 (centres unmarked) [Q-0874] | 1100 | 
67 | Cc1c(C(=O)N2CC(C(F)(F)F)CC(C(F)(F)F)C2)cnn1-c1nn2cccc2c(=O)[nH]1 (centres unmarked) [Q-0967] | 1900 | 
68 | Cc1c(C(=O)N2CC3(CCN(C(=O)OC(C)(C)C)CC3)C2)cnn1-c1nc2c(c(=O)[nH]1)CCC2 [Q-0928] | 200 | 
69 | Cc1c(C(=O)N2CC[C@@H](C(F)(F)F)C[C@H]2C)cnn1-c1nc2c(c(=O)[nH]1)CCC2 (single isomer, unassigned) [Q-0442] | 200 | 
70 | Cc1c(C(=O)N2CCC(N3CCC(F)CC3)C2)cnn1-c1nn2cccc2c(=O)[nH]1 (centres unmarked) [Q-1027] | 3100 | 
71 | COC1(C(F)(F)F)CCCN(C(=O)c2cnn(-c3nn4cccc4c(=O)[nH]3)c2C)C1 (centres unmarked) [Q-1006] | 1400 | 
72 | Cc1c(C(=O)N2CC(OCc3ccc(F)c(F)c3)C2)cnn1-c1nn2cccc2c(=O)[nH]1 [Q-1000] | 900 | 
73 | Cc1c(C(=O)N2CC(N3CC(F)(C(F)(F)F)C3)C2)cnn1-c1nn2cccc2c(=O)[nH]1 [Q-1042] | 1000 | 
74 | Cc1c(C(=O)N2CCC[C@@H](OCC(F)(F)F)C2)cnn1-c1nn2cccc2c(=O)[nH]1 [Q-1014] | 1400 | 
75 | Cc1c(C(=O)N2CC[C@@H]3CN(C(=O)OC(C)(C)C)C[C@@H]32)cnn1-c1nn2cccc2c(=O)[nH]1 [Q-0897] | 500 | 
76 | Cc1c(C(=O)N2C3CCC2CN(c2ccccn2)C3)cnn1-c1nn2cccc2c(=O)[nH]1 [Q-0882] | 200 | 
